In publication PMC9487510, “A Novel Oral GyrB/ParE Dual Binding Inhibitor Effective against Multidrug-Resistant Neisseria gonorrhoeae and Other High-Threat Pathogens” (Antimicrobial Agents and Chemotherapy, 2022):
Values after ≈ are worked out from the molar mass of the structure shown. Read-outs that look alike come from different tables or passages of the source.

Columns and labels:
[1] = test system: VRSA; test: MIC, in vitro susceptibility testing (CLSI); assay type: cell-based, Staphylococcus aureus; settings: for MIC: Staphylococcus aureus, VRSA
[2] = Kinetic aqueous solubility; assay type: physicochemical; settings: aqueous medium (not further specified)
[3] = test system: E. coli, Pseudomonas aeruginosa, Klebsiella pneumoniae, Acinetobacter baumannii, Francisella tularensis, Yersinia pestis; test: organism not typed; assay type: cell-based
[4] = Serum protein binding; assay type: in vitro ADME
[5] = test system: B. anthracis; test: microbe, parasite or virus in culture; assay type: cell-based; settings: for MIC: Bacillus anthracis
[6] = test system: E. coli; test: microbe, parasite or virus in culture; assay type: cell-based; settings: Escherichia coli
[7] = test system: VISA; test: MIC, in vitro susceptibility testing (CLSI); assay type: cell-based, Staphylococcus aureus; settings: for MIC: Staphylococcus aureus, VISA
[8] = test system: C. difficile; test: MIC, toxigenic C. difficile panel (CLSI); assay type: cell-based, Clostridioides difficile
[9] = test system: MRSA; test: MIC, in vitro susceptibility testing (CLSI); assay type: cell-based, Staphylococcus aureus; settings: for MIC: Staphylococcus aureus, MRSA

CNc1cc(F)cc2c1[nH]c1nc(Oc3cnc(C)nc3)nc(N3CCC4(CC3)CO[C@@H](CO)C4)c12 [JSF-2414]
MIC range ([1]; N = 7 (Van: 9)): 0.0156 to 0.031 µg/mL | MIC ([1]; strain 2 25 23): 0.016 µg/mL (≈ 0.0324 µM) | MIC ([1]; strain 2 25 24): 0.016 to 0.031 µg/mL (≈ 0.0324 to 0.0628 µM) | MIC ([1]; strain 2 25 25): 0.016 to 0.031 µg/mL (≈ 0.0324 to 0.0628 µM) | MIC ([1]; strain 2 25 26): 0.0156 to 0.031 µg/mL (≈ 0.0316 to 0.0628 µM) | MIC ([1]; strain 2 25 27): 0.031 µg/mL (≈ 0.0628 µM) | MIC ([1]; strain 2 25 28): 0.0156 to 0.031 µg/mL (≈ 0.0316 to 0.0628 µM) | MIC ([1]; strain VRS2 (VRS-2)): 0.031 µg/mL (≈ 0.0628 µM) | solubility kinetic [2]: 0.576 µM (≈ 0.284 µg/mL) | MIC [3]: > 0.5 µg/mL | fraction unbound [4]: 0.012 | MIC ([5]; strain Ames): 0.049 µg/mL (≈ 0.0993 µM) | MIC ([5]; strain Vollum V1B): 0.098 µg/mL (≈ 0.199 µM) | MIC range ([5]; N = 2): 0.049 to 0.098 µg/mL | MIC [6]: 0.5 µg/mL (≈ 1.01 µM) | MIC range ([7]; N = 8): 0.0156 to 0.063 µg/mL | MIC ([7]; strain 2 11 43): 0.0156 to 0.031 µg/mL (≈ 0.0316 to 0.0628 µM) | MIC ([7]; strain 2 11 56): 0.063 µg/mL (≈ 0.128 µM) | MIC ([7]; strain 2 11 57): 0.031 to 0.063 µg/mL (≈ 0.0628 to 0.128 µM) | MIC ([7]; strain 2 11 61): 0.0156 to 0.031 µg/mL (≈ 0.0316 to 0.0628 µM) | MIC ([7]; strain 2 11 71): 0.0156 to 0.031 µg/mL (≈ 0.0316 to 0.0628 µM) | MIC ([7]; strain 2 11 78): 0.0156 to 0.031 µg/mL (≈ 0.0316 to 0.0628 µM) | MIC ([7]; strain 2 11 86): 0.031 µg/mL (≈ 0.0628 µM) | MIC ([7]; strain 2 13 52): 0.0156 to 0.031 µg/mL (≈ 0.0316 to 0.0628 µM) | MIC ([8]; Clostridioides difficile, BAA1805, strain BAA-1805, read-out: MIC): 0.031 µg/mL (≈ 0.0628 µM) | MIC range ([8]; N = 9, toxigenic panel): 0.0078 to 0.0630 µg/mL | MIC range ([9]; 101 strains (Van: 8)): 0.002 to 0.125 µg/mL | MIC ([9]; 101 clinical MRSA strains, read-out: modal MIC): 0.031 µg/mL (≈ 0.0628 µM) | MIC ([9]; ciprofloxacin-resistant strains (MIC >4 μg/mL), n = 30, read-out: modal MIC): 0.062 µg/mL (≈ 0.126 µM) | MIC ([9]; discussion, read-out: MIC): 0.031 µg/mL (≈ 0.0628 µM) | MIC ([9]; strain 2 11 41, read-out: MIC): 0.062 µg/mL (≈ 0.126 µM) | MIC ([9]; strain 2 11 42, read-out: MIC): 0.016 µg/mL (≈ 0.0324 µM) | MIC ([9]; strain 2 11 43, read-out: MIC): 0.062 µg/mL (≈ 0.126 µM) | MIC ([9]; strain 2 11 56, read-out: MIC): 0.004 µg/mL (≈ 0.0081 µM) | MIC ([9]; strain 2 11 57, read-out: MIC): 0.125 µg/mL (≈ 0.253 µM) | MIC ([9]; strain 2 11 58, read-out: MIC): 0.002 µg/mL (≈ 0.00405 µM) | MIC ([9]; strain 2 11 60, read-out: MIC): 0.004 µg/mL (≈ 0.0081 µM) | MIC ([9]; strain 2 11 61, read-out: MIC): 0.004 µg/mL (≈ 0.0081 µM) | MIC ([9]; strain 2 11 65, read-out: MIC): 0.062 µg/mL (≈ 0.126 µM) | MIC ([9]; strain 2 11 66, read-out: MIC): 0.062 µg/mL (≈ 0.126 µM) | MIC ([9]; strain 2 11 67, read-out: MIC): 0.004 µg/mL (≈ 0.0081 µM) | MIC ([9]; strain 2 11 68, read-out: MIC): 0.004 µg/mL (≈ 0.0081 µM) | MIC ([9]; strain 2 11 71, read-out: MIC): 0.062 µg/mL (≈ 0.126 µM) | MIC ([9]; strain 2 11 74, read-out: MIC): 0.062 µg/mL (≈ 0.126 µM) | MIC ([9]; strain 2 11 75, read-out: MIC): 0.008 µg/mL (≈ 0.0162 µM) | MIC ([9]; strain 2 11 79, read-out: MIC): 0.062 µg/mL (≈ 0.126 µM) | MIC ([9]; strain 2 11 80, read-out: MIC): 0.002 µg/mL (≈ 0.00405 µM) | MIC ([9]; strain 2 11 83, read-out: MIC): 0.062 µg/mL (≈ 0.126 µM) | MIC ([9]; strain 2 11 84, read-out: MIC): 0.031 µg/mL (≈ 0.0628 µM) | MIC ([9]; strain 2 11 86, read-out: MIC): 0.002 µg/mL (≈ 0.00405 µM) | MIC ([9]; strain 2 11 87, read-out: MIC): 0.062 µg/mL (≈ 0.126 µM) | MIC ([9]; strain 2 11 90, read-out: MIC): 0.125 µg/mL (≈ 0.253 µM) | MIC ([9]; strain 2 11 91, read-out: MIC): 0.016 µg/mL (≈ 0.0324 µM) | MIC ([9]; strain 2 11 99, read-out: MIC): 0.008 µg/mL (≈ 0.0162 µM) | MIC ([9]; strain 2 12 13, read-out: MIC): 0.125 µg/mL (≈ 0.253 µM) | MIC ([9]; strain 2 12 76, read-out: MIC): 0.031 µg/mL (≈ 0.0628 µM) | MIC ([9]; strain 2 12 78, read-out: MIC): 0.016 µg/mL (≈ 0.0324 µM) | MIC ([9]; strain 2 12 88, read-out: MIC): 0.004 µg/mL (≈ 0.0081 µM) | MIC ([9]; strain 2 13 19, read-out: MIC): 0.016 µg/mL (≈ 0.0324 µM) | MIC ([9]; strain 2 13 23, read-out: MIC): 0.125 µg/mL (≈ 0.253 µM) | MIC ([9]; strain 2 13 26, read-out: MIC): 0.004 µg/mL (≈ 0.0081 µM) | MIC ([9]; strain 2 13 27, read-out: MIC): 0.016 µg/mL (≈ 0.0324 µM) | MIC ([9]; strain 2 13 29, read-out: MIC): 0.002 µg/mL (≈ 0.00405 µM) | MIC ([9]; strain 2 13 32, read-out: MIC): 0.004 µg/mL (≈ 0.0081 µM) | MIC ([9]; strain 2 13 33, read-out: MIC): 0.016 µg/mL (≈ 0.0324 µM) | MIC ([9]; strain 2 13 41, read-out: MIC): 0.125 µg/mL (≈ 0.253 µM)
